pIC50: −log10 of the molar value. Structures can show the parent of a compound that is named as a salt.
Tests used:
[1] = molecular target: Human MER (residues 528-999) (Homo sapiens (Human), UniProt Q12866); assay: Human Mer kinase assay, HTRF KinEase (Example C-2); assay type: biochemical; details: protocol of Example C-2 (other compounds)
Summary of the method: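 HTRF KinEase TK assay with MER 528-999 (1 ng/well) in enzymatic buffer plus 5 mM MgCl2 and 1 mM DTT, biotinylated peptide substrate and ATP at Km (40 μM), 3% DMSO final, 60 min at room temperature. Stopped with EDTA detection mix (SA-XL665, TK antibody-Eu3+), read at 665/620 nm after 60 min; IC50 from 10-point 4-parameter fit, normalized to DMSO and 1 μM reference.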

[2] = molecular target: Human MET (residues 956-1390) (Homo sapiens (Human), UniProt P08581); assay: Human Met kinase assay, HTRF KinEase (Example D-2); assay type: biochemical; details: protocol of Example D-2 (other compounds); read-out: c-Met IC50
Human MET (residues 956-1390), sequence (P08581 956-1390): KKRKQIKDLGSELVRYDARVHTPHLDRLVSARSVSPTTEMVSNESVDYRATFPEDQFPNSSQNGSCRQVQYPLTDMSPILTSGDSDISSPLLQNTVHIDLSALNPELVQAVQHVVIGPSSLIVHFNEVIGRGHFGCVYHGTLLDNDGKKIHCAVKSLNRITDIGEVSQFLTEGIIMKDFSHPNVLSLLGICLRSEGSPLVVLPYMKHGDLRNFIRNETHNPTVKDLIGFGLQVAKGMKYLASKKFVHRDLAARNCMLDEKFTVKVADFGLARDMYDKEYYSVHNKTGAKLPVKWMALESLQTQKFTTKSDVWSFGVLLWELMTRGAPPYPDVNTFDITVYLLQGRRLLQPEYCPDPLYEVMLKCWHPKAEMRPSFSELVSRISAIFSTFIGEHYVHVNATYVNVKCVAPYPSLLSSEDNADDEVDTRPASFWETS
Summary of the method: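 HTRF KinEase assay on MET residues 956-1390 (0.1 ng/well) in buffer with 5 mM MgCl2, 1 mM DTT and 1 mM MnCl2, with biotinylated peptide substrate, ATP at Km, 10 compound concentrations and 3% DMSO final, run 40 min at room temperature. The […] signal was normalized to DMSO and to 1 μM reference compound, and IC50 came from a 4-parameter logistic fit.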

[3] = molecular target: KDR (phospho-KDR, VEGF165-stimulated HUVEC cells) (Homo sapiens (Human), UniProt P35968); assay: KDR autophosphorylation ELISA in HUVEC cells (Example G); assay type: cell-based; details: cellular activity; KDR autophosphorylation ELISA in HUVEC cells
KDR (phospho-KDR, VEGF165-stimulated HUVEC cells), sequence (P35968 20-1356): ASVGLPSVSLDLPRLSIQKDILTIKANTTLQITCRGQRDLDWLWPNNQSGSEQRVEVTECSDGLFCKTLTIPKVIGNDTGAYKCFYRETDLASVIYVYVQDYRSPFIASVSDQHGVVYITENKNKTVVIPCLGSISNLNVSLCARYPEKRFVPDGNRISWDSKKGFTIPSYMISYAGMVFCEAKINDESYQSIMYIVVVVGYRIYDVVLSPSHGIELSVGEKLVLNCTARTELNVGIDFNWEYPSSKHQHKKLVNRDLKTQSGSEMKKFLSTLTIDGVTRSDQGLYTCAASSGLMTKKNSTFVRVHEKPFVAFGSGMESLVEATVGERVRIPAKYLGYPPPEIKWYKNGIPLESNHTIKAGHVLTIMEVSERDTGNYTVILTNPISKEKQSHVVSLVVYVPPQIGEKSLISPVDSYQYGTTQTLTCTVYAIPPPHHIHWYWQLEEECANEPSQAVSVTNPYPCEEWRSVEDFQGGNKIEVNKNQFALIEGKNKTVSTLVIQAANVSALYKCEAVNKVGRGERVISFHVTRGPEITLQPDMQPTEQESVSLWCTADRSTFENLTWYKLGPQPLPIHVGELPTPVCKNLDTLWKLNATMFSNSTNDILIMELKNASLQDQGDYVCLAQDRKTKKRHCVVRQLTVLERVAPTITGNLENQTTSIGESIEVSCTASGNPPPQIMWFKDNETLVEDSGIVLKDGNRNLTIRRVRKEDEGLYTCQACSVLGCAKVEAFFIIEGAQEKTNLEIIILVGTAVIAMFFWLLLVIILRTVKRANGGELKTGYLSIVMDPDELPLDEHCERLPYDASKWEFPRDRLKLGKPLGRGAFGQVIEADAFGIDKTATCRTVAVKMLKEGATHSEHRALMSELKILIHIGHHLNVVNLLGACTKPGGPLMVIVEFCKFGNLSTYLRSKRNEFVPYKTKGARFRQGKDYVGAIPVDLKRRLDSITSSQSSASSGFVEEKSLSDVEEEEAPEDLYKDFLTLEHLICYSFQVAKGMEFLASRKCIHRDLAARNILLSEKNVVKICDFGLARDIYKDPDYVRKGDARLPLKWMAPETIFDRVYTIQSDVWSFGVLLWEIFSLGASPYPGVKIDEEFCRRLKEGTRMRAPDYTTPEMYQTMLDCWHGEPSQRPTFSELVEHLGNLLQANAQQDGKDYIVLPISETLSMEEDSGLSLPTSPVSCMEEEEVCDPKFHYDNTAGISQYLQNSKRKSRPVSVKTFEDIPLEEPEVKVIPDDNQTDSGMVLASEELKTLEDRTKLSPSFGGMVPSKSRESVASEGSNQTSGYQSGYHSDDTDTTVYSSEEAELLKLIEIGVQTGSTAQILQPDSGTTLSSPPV
Summary of the method: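 IC50 values derive from nonlinear curve fitting of phospho-KDR levels measured by ELISA and interpolated from a phosphoprotein standard. Beforehand, starved HUVECs received compound (0.3% DMSO vehicle) for one hour and were activated with VEGF165 at 100 ng/mL for 5 min.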

Human MER (residues 528-999), sequence (Q12866 528-999): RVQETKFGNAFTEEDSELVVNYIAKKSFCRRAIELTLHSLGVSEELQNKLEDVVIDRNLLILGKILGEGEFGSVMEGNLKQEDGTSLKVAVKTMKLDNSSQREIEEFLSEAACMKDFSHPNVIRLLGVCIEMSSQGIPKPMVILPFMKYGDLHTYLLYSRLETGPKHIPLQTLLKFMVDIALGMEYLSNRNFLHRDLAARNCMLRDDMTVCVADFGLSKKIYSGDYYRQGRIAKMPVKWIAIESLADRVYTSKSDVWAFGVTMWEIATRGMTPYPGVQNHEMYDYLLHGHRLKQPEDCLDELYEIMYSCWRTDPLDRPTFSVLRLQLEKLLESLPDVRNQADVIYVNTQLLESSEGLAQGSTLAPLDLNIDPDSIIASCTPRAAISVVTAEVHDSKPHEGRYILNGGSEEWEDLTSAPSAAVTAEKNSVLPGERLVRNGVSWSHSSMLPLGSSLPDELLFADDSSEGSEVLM

SMILES | pIC50 [1] | pIC50 [2] | pIC50 [3]
COc1ccc2nccc(Oc3ccc(NC(=O)c4c(C)ncn(-c5ccc(F)cc5)c4=O)cc3F)c2n1 [Compound 234, N-[3-Fluoro-4-[(6-methoxy-1,5-naphthyridin-4-yl)oxy]phenyl]-1-(4-fluorophenyl)-4-methyl-6-oxopyrimidine-5-carboxamide] | > 7.00 | < 6.52 | 6.52 to 7.00
COc1cnc2c(Oc3ccc(NC(=O)c4c(C)ncc(-c5ccc(F)cc5)c4O)cc3)ccnc2c1 [Compound 236, 5-(4-Fluorophenyl)-4-hydroxy-N-[4-[(7-methoxy-1,5-naphthyridin-4-yl)oxy]phenyl]-2-methylpyridine-3-carboxamide] | > 7.00 | > 7.00 | > 7.00
COCc1nc(C)c(-c2ccc(F)cc2)c(O)c1C(=O)Nc1ccc(Oc2ccnc3cc(OC)c(OC)nc23)cc1 [Compound 190, N-[4-[(6,7-Dimethoxy-1,5-naphthyridin-4-yl)oxy]phenyl]-5-(4-fluorophenyl)-4-hydroxy-2-(methoxymethyl)-6-methylpyridine-3-carboxamide] | > 7.00 | > 7.00 | > 7.00
COCc1nc(C)c(-c2ccc(F)cc2)c(O)c1C(=O)Nc1ccc(Oc2ccnc3cc(OC)cnc23)cc1 [Compound 185, 5-(4-Fluorophenyl)-4-hydroxy-2-(methoxymethyl)-N-[4-[(7-methoxy-1,5-naphthyridin-4-yl)oxy]phenyl]-6-methylpyridine-3-carboxamide] | > 7.00 | > 7.00 | > 7.00
COc1cc2nccc(Oc3ccc(NC(=O)c4cn(C(C)C)c(C)c(-c5ccc(F)cc5C)c4=O)cc3F)c2nc1OC [Compound 32, N-[4-[(6,7-Dimethoxy-1,5-naphthyridin-4-yl)oxy]-3-fluorophenyl]-5-(4-fluoro-2-methylphenyl)-6-methyl-4-oxo-1-propan-2-ylpyridine-3-carboxamide hydrochloride] | > 7.00 | > 7.00 | < 6.52
COc1cnc2c(Oc3ccc(NC(=O)c4cnc(C)c(-c5ccc(F)cc5C)c4O)cc3)ccnc2c1 [Compound 176, 5-(4-Fluoro-2-methylphenyl)-4-hydroxy-N-[4-[(7-methoxy-1,5-naphthyridin-4-yl)oxy]phenyl]-6-methylpyridine-3-carboxamide] | > 7.00 | > 7.00 | > 7.00
CCc1nc(C)c(-c2ccc(F)cc2)c(O)c1C(=O)Nc1ccc(Oc2ccnc3cc(OC)cnc23)c(F)c1 [Compound 180, 2-Ethyl-N-[3-fluoro-4-[(7-methoxy-1,5-naphthyridin-4-yl)oxy]phenyl]-5-(4-fluorophenyl)-4-hydroxy-6-methylpyridine-3-carboxamide] | > 7.00 | > 7.00 | > 7.00
COc1cc2nccc(Oc3ccc(NC(=O)c4cn(C)c(C)c(-c5ccc(F)cc5C)c4=O)cc3)c2nc1OC [Compound 196, N-[4-[(6,7-Dimethoxy-1,5-naphthyridin-4-yl)oxy]phenyl]-5-(4-fluoro-2-methylphenyl)-1,6-dimethyl-4-oxopyridine-3-carboxamide] | > 7.00 | > 7.00 | > 7.00
COc1cc2nccc(Oc3ccc(NC(=O)c4c(C)nc(C)c(-c5ccc(F)cc5C)c4O)cc3F)c2nc1OC [Compound 177, N-[4-[(6,7-Dimethoxy-1,5-naphthyridin-4-yl)oxy]-3-fluorophenyl]-5-(4-fluoro-2-methylphenyl)-4-hydroxy-2,6-dimethylpyridine-3-carboxamide] | > 7.00 | > 7.00 | > 7.00
CCc1nc(C)c(-c2ccc(F)cc2)c(O)c1C(=O)Nc1ccc(Oc2ccnc3cc(OC)c(OC)nc23)c(F)c1 [Compound 179, N-[4-[(6,7-Dimethoxy-1,5-naphthyridin-4-yl)oxy]-3-fluorophenyl]-2-ethyl-5-(4-fluorophenyl)-4-hydroxy-6-methylpyridine-3-carboxamide] | > 7.00 | > 7.00 | > 7.00
COc1cc2nccc(Oc3ccc(NC(=O)c4ccc(C)n(-c5ccc(F)cc5C)c4=O)cc3)c2nc1OC [Compound 225, N-[4-[(6,7-Dimethoxy-1,5-naphthyridin-4-yl)oxy]phenyl]-1-(4-fluoro-2-methylphenyl)-6-methyl-2-oxopyridine-3-carboxamide] | > 7.00 | > 7.00 | > 7.00
COc1ccc2nccc(Oc3ccc(NC(=O)c4cn(C)c(CO)c(-c5ccc(F)cc5)c4=O)cc3F)c2n1 [Compound 224, N-[3-Fluoro-4-[(6-methoxy-1,5-naphthyridin-4-yl)oxy]phenyl]-5-(4-fluorophenyl)-6-(hydroxymethyl)-1-methyl-4-oxopyridine-3-carboxamide] | > 7.00 | > 7.00 | < 6.52
CCc1nc(C)c(-c2ccc(F)cc2)c(O)c1C(=O)Nc1ccc(Oc2ccnc3ccc(OC)nc23)c(F)c1 [Compound 182, 2-Ethyl-N-[3-fluoro-4-[(6-methoxy-1,5-naphthyridin-4-yl)oxy]phenyl]-5-(4-fluorophenyl)-4-hydroxy-6-methylpyridine-3-carboxamide] | > 7.00 | > 7.00 | > 7.00
COc1cnc2c(Oc3ccc(NC(=O)c4cn(C)c(CO)c(-c5ccc(F)cc5)c4=O)cc3F)ccnc2c1 [Compound 222, N-[3-Fluoro-4-[(7-methoxy-1,5-naphthyridin-4-yl)oxy]phenyl]-5-(4-fluorophenyl)-6-(hydroxymethyl)-1-methyl-4-oxopyridine-3-carboxamide] | > 7.00 | > 7.00 | < 6.52

Now from value to compound:

pIC50 [1] | pIC50 [2] | pIC50 [3] | SMILES
> 7.00 | > 7.00 | < 6.52 | COc1cnc2c(Oc3ccc(NC(=O)c4n[nH]c(C)c(-c5ccc(F)cc5C)c4=O)cc3)ccnc2c1 [Compound 248, 5-(4-Fluoro-2-methylphenyl)-N-[4-[(7-methoxy-1,5-naphthyridin-4-yl)oxy]phenyl]-6-methyl-4-oxo-1H-pyridazine-3-carboxamide]
> 7.00 | > 7.00 | > 7.00 | COCCOc1nc2c(Oc3ccc(NC(=O)c4n[nH]c(C)c(-c5ccc(F)cc5C)c4=O)cc3F)ccnc2cc1OC [Compound 252, N-[3-Fluoro-4-[[7-methoxy-6-(2-methoxyethoxy)-1,5-naphthyridin-4-yl]oxy]phenyl]-5-(4-fluoro-2-methylphenyl)-6-methyl-4-oxo-1H-pyridazine-3-carboxamide]
> 7.00 | > 7.00 | > 7.00 | COc1cc2nccc(Oc3ccc(NC(=O)c4ncc(C)n(-c5ccc(F)cc5)c4=O)cc3)c2nc1OC [Compound 262, N-[4-[(6,7-Dimethoxy-1,5-naphthyridin-4-yl)oxy]phenyl]-4-(4-fluorophenyl)-5-methyl-3-oxopyrazine-2-carboxamide]
> 7.00 | > 7.00 | 6.52 to 7.00 | COc1cnc2c(Oc3ccc(NC(=O)c4n[nH]c(C)c(-c5ccc(F)cc5C)c4=O)cc3F)ccnc2c1 [Compound 249A, N-[3-Fluoro-4-[(7-methoxy-1,5-naphthyridin-4-yl)oxy]phenyl]-5-(4-fluoro-2-methylphenyl)-6-methyl-4-oxo-1H-pyridazine-3-carboxamide]
> 7.00 | > 7.00 | < 6.52 | CCn1cc(-c2ccc(F)cc2)c(=O)c(C(=O)Nc2ccc(Oc3ccnc4cc(OC)cnc34)c(F)c2)c1C [Compound 240, 1-Ethyl-N-[3-fluoro-4-[(7-methoxy-1,5-naphthyridin-4-yl)oxy]phenyl]-5-(4-fluorophenyl)-2-methyl-4-oxopyridine-3-carboxamide]
> 7.00 | > 7.00 | < 6.52 | COc1cnc2c(Oc3ccc(NC(=O)c4nn(C)c(C)c(-c5ccc(F)cc5)c4=O)cc3)ccnc2c1 [Compound 251, 5-(4-Fluorophenyl)-N-[4-[(7-methoxy-1,5-naphthyridin-4-yl)oxy]phenyl]-1,6-dimethyl-4-oxopyridazine-3-carboxamide]
> 7.00 | > 7.00 | > 7.00 | COc1cnc2c(Oc3ccc(NC(=O)c4nnc(C)c(-c5ccc(F)cc5C)c4O)cc3F)ccnc2c1 (single isomer, unassigned) [Compound 249B, N-[3-Fluoro-4-[(7-methoxy-1,5-naphthyridin-4-yl)oxy]phenyl]-5-(4-fluoro-2-methylphenyl)-4-hydroxy-6-methylpyridazine-3-carboxamide]
> 7.00 | > 7.00 | < 6.52 | COc1cnc2c(Oc3ccc(NC(=O)c4cn(CC(F)(F)F)c(C)c(-c5ccc(F)cc5)c4=O)cc3F)ccnc2c1 [Compound 261, N-[3-Fluoro-4-[(7-methoxy-1,5-naphthyridin-4-yl)oxy]phenyl]-5-(4-fluorophenyl)-6-methyl-4-oxo-1-(2,2,2-trifluoroethyl)pyridine-3-carboxamide]
> 7.00 | < 6.52 | < 6.52 | COc1ccc2nccc(Oc3ccc(NC(=O)c4c(C)n(C)cc(-c5ccc(F)cc5)c4=O)cc3F)c2n1 [Compound 243, N-[3-Fluoro-4-[(6-methoxy-1,5-naphthyridin-4-yl)oxy]phenyl]-5-(4-fluorophenyl)-1,2-dimethyl-4-oxopyridine-3-carboxamide]

From patent publication US12371428B2 (Exelixis, Inc., priority 2019, dated 2025)
